From ChEMBL document CHEMBL1201862, “PubChem BioAssay data set” (2004)
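These data come from cells grown in 96-well plates and exposed to compound for 48 hours at five concentrations. At the GI50, growth is halved.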 Activity calls are given as the source filed them. Cut-off read from the data, not from the text of the source: active = GI50 up to about 1.1 µM and inactive = higher.

What was measured:
Test in all cases: DTP human tumour cell line panel, 48 h
OVCAR-8 = system: OVCAR-8
HL-60 = system: HL-60
BT-549 = system: BT-549
HOP-62 = system: HOP-62
Hs-578T = system: Hs-578T
HOP-92 = system: HOP-92
MDA-N = system: MDA-N
HT-29 = system: HT-29
A498 = system: A498
Malme-3M = system: Malme-3M
U-251 = system: U-251
TK-10 = system: TK-10
T47D = system: T47D
EKVX = system: EKVX
SK-OV-3 = system: SK-OV-3
CCRF-CEM = system: CCRF-CEM
UO-31 = system: UO-31
OVCAR-4 = system: OVCAR-4
SK-MEL-2 = system: SK-MEL-2
LOX IMVI = system: LOX IMVI

Measured: GI50

N/C(S)=N/N=C/c1ccc(N)cn1
inactive: OVCAR-8 3.18 µM | HL-60 1.91 µM | BT-549 3.48 µM | HOP-62 5.73 µM | Hs-578T > 8.36 µM | HOP-92 3.44 µM | MDA-N > 6.59 µM | HT-29 4.47 µM | A498 > 8.15 µM | Malme-3M 4.42 µM | U-251 4.06 µM | TK-10 > 10 µM | T47D 6.68 µM | EKVX > 10 µM | SK-OV-3 9.84 µM | CCRF-CEM 1.93 µM | UO-31 2.28 µM | OVCAR-4 > 10 µM | SK-MEL-2 > 10 µM | LOX IMVI 3.62 µM

Cc1ccccc1C1=C/C(=C(\SS/C(C(=O)c2ccc(OCC(=O)O)c(Cl)c2Cl)=C2\C=C(c3ccccc3C)SS2)C(=O)c2ccc(OCC(=O)O)c(Cl)c2Cl)SS1
inactive: OVCAR-8 26.3 µM | HL-60 2.96 µM | BT-549 33.3 µM | HOP-62 51.6 µM | Hs-578T 21.2 µM | HOP-92 5.51 µM | MDA-N 34.1 µM | HT-29 33.1 µM | A498 32.4 µM | Malme-3M 40.1 µM | U-251 8.43 µM | TK-10 35.9 µM | T47D 5.16 µM | EKVX 37.8 µM | SK-OV-3 39.9 µM | CCRF-CEM 12.5 µM | UO-31 20.9 µM | OVCAR-4 21.1 µM | SK-MEL-2 21.4 µM | LOX IMVI 6.82 µM

CC(=O)OCC12C(OC(C)=O)C[C@@H](C)C3(CC(c4ccoc4)OC3=O)C1CCC(O)C21CO1 (stereo partly drawn)
inactive: OVCAR-8 > 100 µM | HL-60 > 100 µM | BT-549 > 100 µM | HOP-62 > 100 µM | Hs-578T > 100 µM | HOP-92 > 100 µM | MDA-N > 100 µM | HT-29 > 100 µM | A498 > 100 µM | Malme-3M > 100 µM | U-251 > 100 µM | TK-10 > 100 µM | T47D 2.82 µM | UO-31 > 100 µM | OVCAR-4 > 100 µM | SK-MEL-2 > 100 µM | LOX IMVI > 100 µM

O=C1C(Cl)=C(Nc2ccc(OC(F)(F)F)cc2)C(=O)c2c(O)ccc(O)c21
inactive: HOP-62 1.17 µM | MDA-N 2.22 µM | A498 3.87 µM | TK-10 1.48 µM | SK-OV-3 1.66 µM | OVCAR-4 1.57 µM
active: OVCAR-8 0.71 µM | HL-60 0.182 µM | BT-549 0.855 µM | Hs-578T 0.719 µM | HOP-92 0.826 µM | HT-29 0.385 µM | Malme-3M 1.01 µM | U-251 0.726 µM | T47D 0.417 µM | EKVX 0.877 µM | CCRF-CEM 0.377 µM | UO-31 0.561 µM | SK-MEL-2 0.292 µM | LOX IMVI 0.262 µM

C[C@H]1CC[C@H](NC(=O)N(CCCl)N=O)CC1
inactive: OVCAR-8 53.2 µM | HL-60 14.4 µM | BT-549 24.7 µM | HOP-62 48.3 µM | Hs-578T 57.4 µM | HOP-92 24.4 µM | MDA-N 44.8 µM | HT-29 51.2 µM | A498 53 µM | Malme-3M 47.9 µM | U-251 26.7 µM | TK-10 63.4 µM | T47D 29.7 µM | EKVX 78.3 µM | SK-OV-3 77.3 µM | CCRF-CEM 13.2 µM | UO-31 49.9 µM | OVCAR-4 31.6 µM | SK-MEL-2 46.5 µM | LOX IMVI 13 µM

CC1(C)N=C(N)N=C(N)N1CCCCc1ccccc1
active: OVCAR-8 0.251 µM | HL-60 0.431 µM | MDA-N 0.046 µM | HT-29 0.124 µM | Malme-3M 0.282 µM | U-251 0.209 µM | CCRF-CEM 0.483 µM | LOX IMVI 0.149 µM
inactive: BT-549 2.16 µM | HOP-62 1.18 µM | Hs-578T 3.21 µM | HOP-92 > 62.2 µM | A498 2.08 µM | TK-10 1.19 µM | T47D 10.4 µM | EKVX 2.21 µM | UO-31 64.3 µM | OVCAR-4 17.3 µM | SK-MEL-2 > 32.9 µM

COC12OC3CC4(C)C(=CC3OC(OC(C)C1O)C2O)CCC1C4CCC2(C)C(c3ccc(=O)oc3)CCC12O (stereo not drawn)
active: OVCAR-8 0.00144 µM | HL-60 0.00139 µM | BT-549 0.00143 µM | HOP-62 0.00137 µM | Hs-578T < 0.001 µM | HOP-92 0.00535 µM | MDA-N 0.00215 µM | HT-29 0.00139 µM | A498 0.00309 µM | Malme-3M 0.00168 µM | U-251 0.00142 µM | TK-10 0.00122 µM | T47D 0.00227 µM | EKVX < 0.001 µM | SK-OV-3 0.00289 µM | CCRF-CEM 0.00125 µM | UO-31 0.0017 µM | OVCAR-4 0.00126 µM | SK-MEL-2 0.00205 µM | LOX IMVI 0.00137 µM

O=C(/C=C/c1ccco1)c1cccc(C(=O)/C=C/c2ccco2)n1
inactive: OVCAR-8 2.69 µM | BT-549 13 µM | HOP-62 17.1 µM | Hs-578T 4.4 µM | HOP-92 32.9 µM | MDA-N 10.7 µM | HT-29 5.07 µM | A498 > 72.1 µM | Malme-3M 25.7 µM | U-251 5.22 µM | TK-10 41.2 µM | T47D 6.17 µM | EKVX 57.3 µM | SK-OV-3 47.8 µM | UO-31 6.43 µM | OVCAR-4 > 73.5 µM | SK-MEL-2 25.5 µM | LOX IMVI 1.78 µM
active: HL-60 0.0409 µM | CCRF-CEM 0.71 µM

Cc1ccc2[nH]c3c(c2c1)C1CCC(C(C)(C)C)CC1C1C(=O)N(c2ccc4c(c2)OCO4)C(=O)C31 (stereo not drawn)
inactive: OVCAR-8 1.97 µM | HL-60 2.72 µM | BT-549 7.87 µM | HOP-62 1.91 µM | Hs-578T 1.55 µM | HOP-92 2.24 µM | MDA-N 5.41 µM | HT-29 4.51 µM | A498 1.83 µM | Malme-3M 2.23 µM | U-251 2.1 µM | TK-10 2.05 µM | T47D 2.06 µM | EKVX 3.57 µM | SK-OV-3 2.58 µM | CCRF-CEM 1.82 µM | UO-31 2.55 µM | OVCAR-4 1.85 µM | SK-MEL-2 7.18 µM | LOX IMVI 2.4 µM

C=CCN1C(=O)/C(=C/c2ccccc2)N=C1SC1OC(COC(C)=O)C(OC(C)=O)C(OC(C)=O)C1OC(C)=O (stereo not drawn)
inactive: OVCAR-8 29.5 µM | HL-60 26.5 µM | BT-549 28.6 µM | HOP-62 37.8 µM | Hs-578T 25.5 µM | HOP-92 23.7 µM | MDA-N 29 µM | HT-29 32.7 µM | A498 38.1 µM | Malme-3M 19.5 µM | U-251 19.2 µM | TK-10 72.8 µM | T47D 27.2 µM | EKVX 15.7 µM | SK-OV-3 38.7 µM | CCRF-CEM 22.5 µM | OVCAR-4 27.2 µM | SK-MEL-2 18.5 µM | LOX IMVI 27.2 µM

CC(C)(C)OC(=O)N/N=C(/N)Cc1ccccc1
inactive: OVCAR-8 > 100 µM | HL-60 > 100 µM | BT-549 > 100 µM | HOP-62 > 100 µM | Hs-578T > 100 µM | HOP-92 > 100 µM | MDA-N > 100 µM | HT-29 > 100 µM | A498 > 100 µM | Malme-3M > 100 µM | U-251 > 100 µM | TK-10 > 100 µM | T47D > 100 µM | EKVX > 100 µM | SK-OV-3 > 100 µM | CCRF-CEM > 100 µM | UO-31 > 100 µM | OVCAR-4 > 100 µM | SK-MEL-2 > 100 µM | LOX IMVI > 100 µM

Cc1cc(C)c(S(=O)(=O)N[C@@H](/C=C(\Br)CO)C(C)C)c(C)c1
inactive: OVCAR-8 33.7 µM | HL-60 17.9 µM | BT-549 40.3 µM | HOP-62 56.5 µM | Hs-578T 22.5 µM | HOP-92 23.1 µM | MDA-N 26.1 µM | HT-29 31 µM | A498 20.7 µM | Malme-3M 21.5 µM | U-251 25.4 µM | TK-10 34.5 µM | T47D 25.9 µM | EKVX 35.6 µM | SK-OV-3 50.5 µM | CCRF-CEM 27.3 µM | UO-31 33 µM | SK-MEL-2 16.1 µM | LOX IMVI 18.7 µM

O=[N+]([O-])C(=C(Cl)Cl)C(Cl)=C(Cl)Cl
inactive: HOP-62 8.22 µM | A498 3.63 µM | U-251 2.81 µM | EKVX 3.65 µM | SK-OV-3 3.25 µM | SK-MEL-2 1.68 µM
active: OVCAR-8 0.619 µM | HL-60 < 0.0194 µM | BT-549 0.124 µM | Hs-578T 0.485 µM | HOP-92 0.279 µM | MDA-N 0.206 µM | HT-29 0.141 µM | Malme-3M 0.0454 µM | TK-10 0.372 µM | T47D 0.037 µM | CCRF-CEM < 0.01 µM | UO-31 0.836 µM | OVCAR-4 0.0847 µM | LOX IMVI < 0.0117 µM

COc1ccc(OC)c(CC2CCc3nc(N)nc(N)c3C2)c1 (stereo not drawn)
inactive: OVCAR-8 20.3 µM | HL-60 3.58 µM | HOP-62 4.27 µM | Hs-578T 23.7 µM | HOP-92 21.9 µM | HT-29 6.68 µM | A498 23.1 µM | U-251 > 49.3 µM | TK-10 8.32 µM | T47D 20.1 µM | EKVX 15.6 µM | UO-31 4.85 µM | OVCAR-4 28.8 µM | SK-MEL-2 23.6 µM
active: BT-549 0.146 µM | MDA-N < 0.01 µM | Malme-3M 0.0334 µM | CCRF-CEM 0.515 µM | LOX IMVI 0.0561 µM
